These results are taken from EP0176369A2, “7-(Alpha-(4-oxo-2-azetidinyl(or -azetidinylalkyl)-oxyimino)-alpha-(2-amino-4-thiazolyl)acetamido]-3- substituted-Delta 3-cephem-4-carboxylic acid compounds and salts thereof, their production, and medicaments containing them” (YAMANOUCHI PHARMACEUTICAL CO. LTD., priority 1984, dated 1986).

What all share (assay): Antibacterial activity (minimum effective inhibitory concentration)
Common to all, as to assay type: cell-based

In assay [1] the test system is Serr. marcescens II D 620. The conditions noted are these: Serratia marcescens, IID620, read-out: minimum effective inhibitory concentrations. The source says: (§1) Antibacterial activities (minimum effective inhibitory concentrations) of compounds of formula I (taken from the following Examples) are shown in the following Table.
In another assay the test system is Sal. enteritidis 1891. The conditions noted are these: Salmonella enterica, read-out: minimum effective inhibitory concentrations.
Description: as §1

Assay [2] relates to Staph. epidermidis IIb 866. The conditions noted are these: Staphylococcus epidermidis, IIB866, read-out: minimum effective inhibitory concentrations.
Description: as §1

For assay [3], the system named is Kleb. pneumoniae ATCC 10031. The conditions noted are these: Klebsiella pneumoniae, ATCC10031, read-out: minimum effective inhibitory concentrations.
Description: as §1

For assay [4], the system named is Ps. aeruginosa NCTC 10490. The conditions noted are these: Pseudomonas aeruginosa, NCTC10490, read-out: minimum effective inhibitory concentrations.
Description: as §1

≈ marks a conversion by molar mass, not a printed value.

Take `Nc1ccc[n+](CC2=C(C(=O)[O-])N3C(=O)C(NC(=O)C(=NOC4CC(=O)N4)c4csc(N)n4)C3SC2)c1` (stereo not drawn) [Example 4, (Z)-7-[α(-2-amino-4-thiazolyl) -α-(4-oxo-2-azetidinyloxyimino)acetamido]-3-(3-amino-pyridiniomethyl)-^3-cephem-4-carboxylate]: the MIC in assay [1] is 0.1 µg/mL (≈ 0.184 µM); with Sal. enteritidis 1891, 0.1 µg/mL (≈ 0.184 µM); in assay [2], 0.2 µg/mL (≈ 0.367 µM); in assay [3], 0.1 µg/mL (≈ 0.184 µM); in assay [4], 0.78 µg/mL (≈ 1.43 µM).
As for `Nc1nc(C(=NOC2CC(=O)N2)C(=O)NC2C(=O)N3C(C(=O)O)=C(CSc4nnnn4CCO)CSC23)cs1` (centres unmarked) [Example 2, sodium (Z)-7[-(2-amino-4-thiazolyl)-∝-(4-oxo-2-azetidingloxyiino)acetamido]-3-[1-(2-gtdrixy-ethyl)-5-tetrazolyl]thiomethyl-^3-cephem-4-carboxcylate], the MIC in assay [1] was 0.1 µg/mL; in the assay on Sal. enteritidis 1891, 0.1 µg/mL; in assay [2], 0.78 µg/mL; in assay [3], 0.05 µg/mL; in assay [4], 0.1 µg/mL.
Turning to `C[N+]1(CC2=C(C(=O)[O-])N3C(=O)C(NC(=O)C(=NOC4CC(=O)N4)c4csc(N)n4)C3SC2)CCCC1` (centres unmarked) [Example 7, (Z)-7-[ -(2-amino-4-thiazolyl)- -(4-oxo-2-azetidinyloxyimino)-acetamido]-3-(1-methyl-1-pyrrolidiniomethyl)-3-cephem-4-carboxylate], the MIC in assay [1] was 0.1 µg/mL (≈ 0.187 µM); with Sal. enteritidis 1891, 0.05 µg/mL (≈ 0.0934 µM); in assay [2], 0.2 µg/mL (≈ 0.373 µM); in assay [3] it was 0.05 µg/mL (≈ 0.0934 µM); in assay [4] it was 0.39 µg/mL (≈ 0.728 µM).
For `Cn1nnnc1SCC1=C(C(=O)O)N2C(=O)C(NC(=O)C(=NOC3CC(=O)N3)c3csc(N)n3)C2SC1` (stereo not drawn) [Example 1, sodium (Z)-7-[α-(4-oxo-2-azptidinyloxyimino)-4-(2-amino-4-thiazolyl)acet-amido]-3-(1-methyl-5-tetrazolyl)thiomethyl-Δ^3-cephem-4-carboxylate], the MIC was 0.05 µg/mL in assay [1]; 0.025 µg/mL in the assay with Sal. enteritidis 1891; 0.2 µg/mL in assay [2]; 0.025 µg/mL in assay [3]; 0.78 µg/mL in assay [4].
